One block for each molecule: values may come before it.
Test system: 996289-038-R-J1-PDC spheroid viability
Experiment: Anticancer human tumor 996289-038-R-J1-PDC patient-derived colon adenocarcinoma cell line growth inhibition [PI3K]
Conditions: spheroids with HUVEC and MSC; for IC50: curve of first compound; for viability, T/C: stronger effect = lower value
Procedure, shortened: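 Stroma-containing spheroids: tumor line, pooled-donor HUVEC, hMSC. Treatments: targeted agents with PI3K inhibitors. Dosing: clinically relevant, half-log spacing, 10 microM ceiling without known Cmax. Read-out: cell viability.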
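Note: spheroids exposed to compounds for seven days before viability read.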
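Throughout, for viability, T/C: luminescence used as a proxy for viable cell amount; percent viability relative to DMSO vehicle control as 100%.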

IC50 (second compound 0.0316 µM): > 10000 nM | IC50 (second compound 0.1 µM): > 10000 nM | IC50 (second compound 0.316 µM): > 10000 nM | IC50 (second compound 1 µM): > 10000 nM | IC50 (second compound 3.16 µM): > 10000 nM | IC50 (second compound 10 µM): < 31.6 nM
SMILES: CNC(=O)c1ccc(N2C(=S)N(c3ccc(C#N)c(C(F)(F)F)c3)C(=O)C2(C)C)cc1F + Cc1nc(NC(=O)N2CCCC2C(N)=O)sc1-c1ccnc(C(C)(C)C(F)(F)F)c1
viability, T/C (second compound 0.0316 µM, first compound 0.0316 µM): 92% | viability, T/C (second compound 0.0316 µM, first compound 0.1 µM): 95.8% | viability, T/C (second compound 0.0316 µM, first compound 0.316 µM): 92.2% | viability, T/C (second compound 0.0316 µM, first compound 1 µM): 92.3% | viability, T/C (second compound 0.0316 µM, first compound 3.16 µM): 93.8% | viability, T/C (second compound 0.0316 µM, first compound 10 µM): 90.4% | viability, T/C (second compound 0.1 µM, first compound 0.0316 µM): 92.9% | viability, T/C (second compound 0.1 µM, first compound 0.1 µM): 82.7% | viability, T/C (second compound 0.1 µM, first compound 0.316 µM): 97.2% | viability, T/C (second compound 0.1 µM, first compound 1 µM): 83.3% | viability, T/C (second compound 0.1 µM, first compound 3.16 µM): 95.2% | viability, T/C (second compound 0.1 µM, first compound 10 µM): 90.3% | viability, T/C (second compound 0.316 µM, first compound 0.0316 µM): 90.9% | viability, T/C (second compound 0.316 µM, first compound 0.1 µM): 81% | viability, T/C (second compound 0.316 µM, first compound 0.316 µM): 88.4% | viability, T/C (second compound 0.316 µM, first compound 1 µM): 84.8% | viability, T/C (second compound 0.316 µM, first compound 3.16 µM): 73.9% | viability, T/C (second compound 0.316 µM, first compound 10 µM): 96.5% | viability, T/C (second compound 1 µM, first compound 0.0316 µM): 75.6% | viability, T/C (second compound 1 µM, first compound 0.1 µM): 76.9% | viability, T/C (second compound 1 µM, first compound 0.316 µM): 69.7% | viability, T/C (second compound 1 µM, first compound 1 µM): 79.9% | viability, T/C (second compound 1 µM, first compound 3.16 µM): 80.7% | viability, T/C (second compound 1 µM, first compound 10 µM): 70.8% | viability, T/C (second compound 3.16 µM, first compound 0.0316 µM): 65.5% | viability, T/C (second compound 3.16 µM, first compound 0.1 µM): 64.7% | viability, T/C (second compound 3.16 µM, first compound 0.316 µM): 58.9% | viability, T/C (second compound 3.16 µM, first compound 1 µM): 52.4% | viability, T/C (second compound 3.16 µM, first compound 3.16 µM): 61.5% | viability, T/C (second compound 3.16 µM, first compound 10 µM): 51.3% | viability, T/C (second compound 10 µM, first compound 0.0316 µM): 39.9% | viability, T/C (second compound 10 µM, first compound 0.1 µM): 46.9% | viability, T/C (second compound 10 µM, first compound 0.316 µM): 49.6% | viability, T/C (second compound 10 µM, first compound 1 µM): 38.9% | viability, T/C (second compound 10 µM, first compound 3.16 µM): 48.3% | viability, T/C (second compound 10 µM, first compound 10 µM): 36.8%

IC50 (second compound 0.0316 µM): 148 nM | IC50 (second compound 0.1 µM): 114 nM | IC50 (second compound 0.316 µM): 59.4 nM | IC50 (second compound 1 µM): 24.8 nM | IC50 (second compound 3.16 µM): 13.5 nM | IC50 (second compound 10 µM): < 9.49 nM
SMILES: Cn1cnc2c(F)c(Nc3ccc(Br)cc3Cl)c(C(=O)NOCCO)cc21 + Cc1nc(NC(=O)N2CCCC2C(N)=O)sc1-c1ccnc(C(C)(C)C(F)(F)F)c1
viability, T/C (second compound 0.0316 µM, first compound 0.00949 µM): 73% | viability, T/C (second compound 0.0316 µM, first compound 0.03 µM): 64.4% | viability, T/C (second compound 0.0316 µM, first compound 0.0949 µM): 54.4% | viability, T/C (second compound 0.0316 µM, first compound 0.3 µM): 42.5% | viability, T/C (second compound 0.0316 µM, first compound 0.949 µM): 33.8% | viability, T/C (second compound 0.0316 µM, first compound 3 µM): 23.6% | viability, T/C (second compound 0.1 µM, first compound 0.00949 µM): 76.7% | viability, T/C (second compound 0.1 µM, first compound 0.03 µM): 70.4% | viability, T/C (second compound 0.1 µM, first compound 0.0949 µM): 48.6% | viability, T/C (second compound 0.1 µM, first compound 0.3 µM): 38.6% | viability, T/C (second compound 0.1 µM, first compound 0.949 µM): 30.4% | viability, T/C (second compound 0.1 µM, first compound 3 µM): 20.5% | viability, T/C (second compound 0.316 µM, first compound 0.00949 µM): 76.2% | viability, T/C (second compound 0.316 µM, first compound 0.03 µM): 60.6% | viability, T/C (second compound 0.316 µM, first compound 0.0949 µM): 41.9% | viability, T/C (second compound 0.316 µM, first compound 0.3 µM): 32% | viability, T/C (second compound 0.316 µM, first compound 0.949 µM): 26.5% | viability, T/C (second compound 0.316 µM, first compound 3 µM): 20.1% | viability, T/C (second compound 1 µM, first compound 0.00949 µM): 58.2% | viability, T/C (second compound 1 µM, first compound 0.03 µM): 50.5% | viability, T/C (second compound 1 µM, first compound 0.0949 µM): 35.3% | viability, T/C (second compound 1 µM, first compound 0.3 µM): 29.4% | viability, T/C (second compound 1 µM, first compound 0.949 µM): 22.1% | viability, T/C (second compound 1 µM, first compound 3 µM): 14.8% | viability, T/C (second compound 3.16 µM, first compound 0.00949 µM): 55.3% | viability, T/C (second compound 3.16 µM, first compound 0.03 µM): 39.1% | viability, T/C (second compound 3.16 µM, first compound 0.0949 µM): 30.1% | viability, T/C (second compound 3.16 µM, first compound 0.3 µM): 22.2% | viability, T/C (second compound 3.16 µM, first compound 0.949 µM): 16.8% | viability, T/C (second compound 3.16 µM, first compound 3 µM): 8.81% | viability, T/C (second compound 10 µM, first compound 0.00949 µM): 31.3% | viability, T/C (second compound 10 µM, first compound 0.03 µM): 24.8% | viability, T/C (second compound 10 µM, first compound 0.0949 µM): 19.1% | viability, T/C (second compound 10 µM, first compound 0.3 µM): 14% | viability, T/C (second compound 10 µM, first compound 0.949 µM): 9.2% | viability, T/C (second compound 10 µM, first compound 3 µM): 5.22%

Reference: PubChem BioAssay AID1963965 (Molecular Pharmacology Branch, DTP, NCI, 2024)
